The target of the test is T1, hSTING (Homo sapiens, UniProt Q86WV6, G230A/H232R/R293Q/R71H).
T1 construct: host or cells: THP1-Dual KO-IFNAR2 cells
Description: STING reporter assay (luciferase reporter) in THP1-Dual KO-IFNAR2 cells activated with 2′3′cGAMP. Conditions: 15 μM 2′3′cGAMP, 24 h, luciferase reporter activity. The test is classed as cell-based. How it is done:
STING pathway activation by the compounds described herein is measured using THP1-Dual™ cells (KO-IFNAR2).
THP1-Dual™ KO-IFNAR2 Cells (obtained from invivogen) are maintained in RPMI, 10% FCS, 5 ml P/S, 2 mM L-glut, 10 mM Hepes, and 1 mM sodium pyruvate. Compounds are spotted in empty 384 well tissue culture plates (Greiner 781182) by Echo for a final concentration of […]. Cells are plated into the TC plates at 40 μL per well, 2×10E6 cells/mL. For activation with STING ligand, 2′3′cGAMP (MW 718.38, obtained from Invivogen), is prepared in Optimem media.
The following solutions are prepared for each 1×384 plate: • Solution A: 2 mL Optimem with one of the following stimuli: • 60 uL of 10 mM 2′3′cGAMP→150 μM stock • Solution B: 2 mL Optimem with 60 μL Lipofectamine 2000→Incubate 5 min at RT
2 mL of solution A and 2 ml Solution B is mixed and incubated for 20 min at room temperature (RT). 20 uL of transfection solution (A+B) is added on top of the plated cells, with a final 2′3′cGAMP concentration of 15 μM. The plates are then centrifuged immediately at 340 g for 1 minute, after which they are incubated at 37° C., 5% CO2, >98% humidity for 24 h. Luciferase reporter activity is then measured. EC50 values were calculated by using standard methods known in the art.
Luciferase Reporter Assay:
10 μL of supernatant from the assay is transferred to white 384-plate with flat bottom and squared wells. one pouch of QUANTI-Luc™ Plus is dissolved in 25 mL of water. 100 μL of QLC Stabilizer per 25 mL of QUANTI-Luc™ Plus solution was added. 50 μL of QUANTI-Luc™ Plus/QLC solution per well is then added. Luminescence is measured on a Platereader (e.g., Spectramax I3X (Molecular Devices GF3637001)).
Luciferase reporter activity is then measured. EC50 values are calculated by using standard methods known in the art.
(In general: A reporter such as luciferase makes a cellular process visible.)

T1 sequence (Q86WV6 whole entry R71H/G230A/H232R/R293Q): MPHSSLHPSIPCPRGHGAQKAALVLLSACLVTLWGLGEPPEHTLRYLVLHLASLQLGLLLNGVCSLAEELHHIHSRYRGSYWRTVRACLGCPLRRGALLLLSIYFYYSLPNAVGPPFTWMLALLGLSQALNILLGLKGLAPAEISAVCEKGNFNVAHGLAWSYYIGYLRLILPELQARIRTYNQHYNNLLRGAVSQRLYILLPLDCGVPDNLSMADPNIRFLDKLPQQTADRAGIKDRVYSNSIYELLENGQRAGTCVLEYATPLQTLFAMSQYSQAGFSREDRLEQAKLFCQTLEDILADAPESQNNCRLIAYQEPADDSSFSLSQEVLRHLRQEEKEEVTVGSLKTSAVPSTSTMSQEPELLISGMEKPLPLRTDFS

By EC50 is commonly meant the midpoint of the concentration-response curve. `O=C(Nc1ccc(C(F)(F)F)cc1)Nc1c[nH]c2ncc(F)cc12` [Compound 173, 1-(5-fluoro-1H-pyrrolo[2,3-b]pyridin-3-yl)-3-(4-(trifluoromethyl)phenyl)urea] returned an EC50 of 0.04 to 0.2 µM.
In the case of `CCc1ccc(NC(=O)Nc2c[nH]c3ncncc23)cc1` [Compound 183b] it was 5 to 100 µM; in that of `O=C(Nc1cccc(C(F)(F)F)c1)Nc1c[nH]c2ncc(F)cc12` [Compound 297], 0.2 to 1 µM.
In the case of `CCc1ccc(NC(=O)Nc2c[nH]c3ncc(F)cc23)cc1` [Compound 174] it was 0.04 to 0.2 µM.
The same measure for `O=C(Nc1ccc(C2CCCCC2)cn1)Nc1c[nH]c2ncccc12` [Compound 264]: 0.2 to 1 µM; for `O=C(Nc1c[nH]c2cccnc12)NC1CCC(c2ccccc2)CC1` (centres unmarked) [Compound 325]: 5 to 100 µM; for `C#Cc1cccc(NC(=O)Nc2c[nH]c3ncc(F)cc23)c1` [Compound 251]: 0.2 to 1 µM.
As to `O=C(Nc1c[nH]c2ncccc12)N1CCc2ccccc2C1` [Compound 306], the EC50 is 5 to 100 µM.
In the case of `O=C(Nc1ccc(C(F)(F)F)cc1)Nc1c[nH]c2nccc(C3=CCOCC3)c12` [Compound 203] it was 5 to 100 µM; in that of `CCc1cnc(NC(=O)Nc2c[nH]c3ncccc23)s1` [Compound 168], 5 to 100 µM.
The same measure for `CCCCc1ccc(NC(=O)Nc2c[nH]c3ncc(F)cc23)nc1` [Compound 259]: 0.2 to 1 µM; for `O=C(Nc1c[nH]c2ncccc12)N1CCCC(c2ccccc2)C1` (centres unmarked) [Compound 307]: 5 to 100 µM; for `CC(c1ccc(-c2ccnc3[nH]cc(NC(=O)Nc4ccc(C(F)(F)F)cc4)c23)cc1)N(C)C` (centres unmarked) [Compound 192]: 5 to 100 µM.
The same measure for `O=C(Nc1ccc(C2CCCCC2)cn1)Nc1c[nH]c2ncc(F)cc12` [Compound 261]: 0.04 to 0.2 µM; for `O=C(Nc1c[nH]c2ncccc12)N1CCc2ccccc21` [Compound 303]: 5 to 100 µM; for `O=C(Nc1cccc(C2CCCCC2)n1)Nc1c[nH]c2ncc(F)cc12` [Compound 260]: 1 to 5 µM.
In the case of `CCCCC1CCCN(C(=O)Nc2c[nH]c3ncccc23)C1` (centres unmarked) [Compound 167], the EC50 lay in the range of 5 to 100 µM.
The same measure for `O=C(Nc1ccc(C(F)(F)F)cc1)Nc1c[nH]c2ncc(Cl)cc12` [Compound 283]: 0.04 to 0.2 µM.
The same measure for `O=C(Nc1ccc(C(F)(F)F)cc1)Nc1c[nH]c2cc(F)cnc12` [Compound 330]: 1 to 5 µM.
The compound `O=C(Nc1c[nH]c2ncc(F)cc12)NC1CCC(Cc2ccccc2)CC1` (centres unmarked) [Compound 248] yielded an EC50 of 0.2 to 1 µM.
The same measure for `O=C(Nc1ccc(C(F)(F)F)cc1)Nc1c[nH]c2ncc(-c3cccnc3)cc12` [Compound 210]: 1 to 5 µM; for `CC(NC(=O)Nc1c[nH]c2ncc(F)cc12)c1ccc2c(c1)OCCO2` (centres unmarked) [Compound 279]: 5 to 100 µM; for `O=C(Nc1c[nH]c2ncc(-c3ccccc3)cc12)NC1CCC(C(F)(F)F)CC1` (centres unmarked) [Compound 162, 3-[5-phenyl-1H-pyrrolo[2,3-b]pyridin-3-yl]-1l-[4-(trifluoromethyl)cyclohexyl]urea]: 5 to 100 µM.
In the case of `O=C(Nc1ccc(C(F)(F)F)c(Cl)c1)Nc1c[nH]c2ncc(F)cc12` [Compound 282] it was 0.2 to 1 µM.
The same measure for `COc1ccc(F)c(F)c1-c1cnc2[nH]cc(NC(=O)Nc3ccc(C(F)(F)F)cc3)c2c1` [Compound 214]: 5 to 100 µM; for `CCCCC1CCC(N/C(=N\C#N)Nc2c[nH]c3cccnc23)CC1` (centres unmarked) [Compound 336]: 0.2 to 1 µM; for `COc1nccc2[nH]cc(NC(=O)Nc3ccc(C(F)(F)F)cc3)c12` [Compound 320, 1-(4-methoxy-1H-pyrrolo[3,2-c]pyridin-3-yl)-3-(4-(trifluoromethyl)phenyl)urea]: 5 to 100 µM.
In the case of `O=C(Nc1ccc(C(F)(F)F)cc1)Nc1c[nH]c2nccc(-c3cccnc3)c12` [Compound 189], the EC50 lay in the range of 5 to 100 µM.
Take `CN1CCN(c2ccc(-c3cnc4[nH]cc(NC(=O)Nc5ccc(C(F)(F)F)cc5)c4c3)cc2)CC1` [Compound 197]: the EC50 was 1 to 5 µM.

For the origin of these results see US11618749B2, “Compounds and compositions for treating conditions associated with STING activity” (IFM Due, Inc., priority 2018, dated 2023).
